# Test results taken from article PMC2014795 (PLoS Pathogens, 2007).
# Molecular target: T1, HLA-DR1 (DRB1*0101) (Homo sapiens, UniProt P01903+P01911, A100R/D57E/F55L/F60I/F76Y/I96L/L162R/M171V/P40L/Q125E/R42F/V115G/Y59C)
# T1 construct: the extracellular portion of HLA-DR1 was produced by expression of isolated subunits in Escherichia coli inclusion bodies; made in house
# Assay: biochemical
# Format: binding
row,Structure (SMILES),IC50
1,CC[C@H](C)[C@H](N)C(=O)N[C@H](C(=O)N[C@H](C(=O)N[C@@H](Cc1c[nH]c2ccccc12)C(=O)N1CCC[C@H]1C(=O)N[C@@H](CCCCN)C(=O)N[C@@H](Cc1ccccc1)C(=O)N[C@@H](CCCNC(=N)N)C(=O)N[C@H](C(=O)N[C@H](C(=O)N[C@@H](CCCCN)C(=O)N1CCC[C@H]1C(=O)N[C@@H](CC(N)=O)C(=O)N[C@@H](CO)C(=O)N[C@@H](Cc1ccccc1)C(=O)N[C@H](C(=O)N[C@@H](Cc1ccccc1)C(=O)N[C@@H](CO)C(=O)N[C@@H](Cc1ccccc1)C(=O)N[C@@H](CO)C(=O)N[C@@H](CO)C(=O)O)[C@@H](C)O)C(C)C)C(C)C)[C@@H](C)O)[C@@H](C)O [Peptide 344],33 ± 5 nM
2,CC[C@H](C)[C@H](NC(=O)[C@H](CO)NC(=O)[C@H](CCSC)NC(=O)[C@H](CO)NC(=O)[C@H](Cc1ccc(O)cc1)NC(=O)[C@@H](NC(=O)[C@@H](NC(=O)[C@H](CO)NC(=O)[C@@H]1CCCN1C(=O)[C@H](Cc1ccccc1)NC(=O)[C@H](CC(C)C)NC(=O)[C@H](CC(C)C)NC(=O)[C@@H](NC(=O)[C@@H](NC(=O)[C@@H](NC(=O)[C@H](CC(C)C)NC(=O)[C@H](CO)NC(=O)[C@H](CCCNC(=N)N)NC(=O)[C@@H](N)CCSC)[C@@H](C)CC)[C@@H](C)CC)C(C)C)[C@@H](C)CC)[C@@H](C)CC)C(=O)N[C@@H](CCCNC(=N)N)C(=O)N[C@@H](CCCNC(=N)N)C(=O)O [Peptide 319],1890 nM
3,CC[C@H](C)[C@H](NC(=O)[C@@H](NC(=O)[C@H](CC(N)=O)NC(=O)[C@H](CCCNC(=N)N)NC(=O)[C@H](Cc1c[nH]cn1)NC(=O)[C@H](CCCNC(=N)N)NC(=O)[C@@H](NC(=O)[C@H](Cc1ccc(O)cc1)NC(=O)[C@H](CCC(=O)O)NC(=O)[C@H](C)NC(=O)[C@H](CC(C)C)NC(=O)[C@@H](NC(=O)[C@H](CC(C)C)NC(=O)[C@H](CCCCN)NC(=O)[C@H](Cc1ccccc1)NC(=O)[C@H](CO)NC(=O)[C@H](Cc1ccc(O)cc1)NC(=O)[C@H](CCCCN)NC(=O)[C@H](CC(N)=O)NC(=O)[C@H](Cc1ccc(O)cc1)NC(=O)[C@@H](N)CC(C)C)[C@@H](C)CC)[C@@H](C)CC)[C@@H](C)O)C(=O)O [Peptide 321],185 ± 50 nM
4,CC[C@H](C)[C@H](NC(=O)[C@H](CC(N)=O)NC(=O)[C@H](CCSC)NC(=O)[C@H](CS)NC(=O)[C@H](CCC(N)=O)NC(=O)[C@@H](NC(=O)[C@@H](NC(=O)[C@H](CCCCN)NC(=O)CN)[C@@H](C)O)[C@@H](C)O)C(=O)N[C@@H](CCSC)C(=O)N[C@@H](CCC(=O)O)C(=O)N[C@@H](CO)C(=O)N[C@H](C(=O)N1CCC[C@H]1C(=O)N[C@@H](C)C(=O)N[C@@H](CC(N)=O)C(=O)N[C@H](C(=O)N[C@H](C(=O)N[C@@H](CCCCN)C(=O)N[C@@H](Cc1ccc(O)cc1)C(=O)N[C@@H](CC(C)C)C(=O)O)[C@@H](C)CC)[C@@H](C)O)[C@@H](C)CC [Peptide 327],11 ± 3 nM
5,CC[C@H](C)[C@H](N)C(=O)N[C@@H](CC(=O)O)C(=O)N[C@@H](CC(N)=O)C(=O)N[C@@H](CCC(=O)O)C(=O)N[C@@H](CO)C(=O)NCC(=O)N[C@@H](Cc1c[nH]c2ccccc12)C(=O)N[C@@H](CCCCN)C(=O)N[C@H](C(=O)N[C@@H](CC(C)C)C(=O)N[C@H](C(=O)N[C@@H](CO)C(=O)N[C@@H](CCCNC(=N)N)C(=O)N[C@@H](C)C(=O)N[C@H](C(=O)N[C@@H](CC(=O)O)C(=O)N[C@@H](CC(C)C)C(=O)N[C@@H](CO)C(=O)N[C@@H](CO)C(=O)N[C@@H](CCCCN)C(=O)N[C@@H](CCCCN)C(=O)O)[C@@H](C)CC)C(C)C)[C@@H](C)O [Peptide 342],130 ± 10 nM
6,CC[C@H](C)[C@H](N)C(=O)N[C@@H](CO)C(=O)N[C@@H](CCC(=O)O)C(=O)N1CCC[C@H]1C(=O)N[C@H](C(=O)N[C@@H](CC(N)=O)C(=O)N[C@H](C(=O)N[C@@H](Cc1ccc(O)cc1)C(=O)N[C@@H](CC(C)C)C(=O)N[C@@H](CC(C)C)C(=O)N[C@@H](C)C(=O)N[C@@H](C)C(=O)N[C@H](C(=O)N[C@@H](Cc1ccc(O)cc1)C(=O)N[C@@H](CO)C(=O)N[C@@H](CC(=O)O)C(=O)N[C@@H](Cc1ccccc1)C(=O)N[C@@H](CC(N)=O)C(=O)N[C@@H](CC(=O)O)C(=O)N[C@@H](CCC(=O)O)C(=O)N[C@H](C(=O)O)C(C)C)C(C)C)C(C)C)C(C)C [Peptide 341],32 ± 2 nM
